Experimental findings from ChEMBL document CHEMBL3621127, “8-Hydroxyquinoline: a privileged structure with a broad-ranging pharmacological potential” (Medchemcomm, 2015) are described below.

The nature of data set [1]: Inhibition of Mycobacterium tuberculosis Fructose 1,6-bisphosphate aldolase class 2 expressed in Escherichia coli BL21(DE3) assessed as cleavage of fructose 1,6-bisphosphate by fluorescence assay.
Data set [2] is described as follows: Acute toxicity in po dosed KM mouse measured for 14 days. The class given is organism-based. To be noted: in vivo.
In data set [3] the target is Amyloid-beta precursor protein (Homo sapiens, UniProt P05067). Description: Inhibition of self-induced amyloid beta (1 to 42) (unknown origin) aggregation after 48 hrs by ThT assay.
The nature of data set [4]: Selectivity index, ratio of CC50 for mouse J774A.1 cells to IC50 for amastigote form of Leishmania donovani MHOM//IN/80/Dd8 infected in mouse J774A.1 cells. The class given is functional.
A further data set has as its system Leishmania donovani. As to the kind of experiment: Antileishmanial activity against amastigote form of Leishmania donovani MHOM//IN/80/Dd8 infected in mouse J774A.1 cells after 72 hrs by luciferase reporter gene assay. The class given is functional, organism-based. To be noted: MHOM//IN/80/Dd8, J774.A1, 72 h. In general terms: A reporter such as luciferase makes a cellular process visible.

Chain of Amyloid-beta precursor protein (P05067 whole entry): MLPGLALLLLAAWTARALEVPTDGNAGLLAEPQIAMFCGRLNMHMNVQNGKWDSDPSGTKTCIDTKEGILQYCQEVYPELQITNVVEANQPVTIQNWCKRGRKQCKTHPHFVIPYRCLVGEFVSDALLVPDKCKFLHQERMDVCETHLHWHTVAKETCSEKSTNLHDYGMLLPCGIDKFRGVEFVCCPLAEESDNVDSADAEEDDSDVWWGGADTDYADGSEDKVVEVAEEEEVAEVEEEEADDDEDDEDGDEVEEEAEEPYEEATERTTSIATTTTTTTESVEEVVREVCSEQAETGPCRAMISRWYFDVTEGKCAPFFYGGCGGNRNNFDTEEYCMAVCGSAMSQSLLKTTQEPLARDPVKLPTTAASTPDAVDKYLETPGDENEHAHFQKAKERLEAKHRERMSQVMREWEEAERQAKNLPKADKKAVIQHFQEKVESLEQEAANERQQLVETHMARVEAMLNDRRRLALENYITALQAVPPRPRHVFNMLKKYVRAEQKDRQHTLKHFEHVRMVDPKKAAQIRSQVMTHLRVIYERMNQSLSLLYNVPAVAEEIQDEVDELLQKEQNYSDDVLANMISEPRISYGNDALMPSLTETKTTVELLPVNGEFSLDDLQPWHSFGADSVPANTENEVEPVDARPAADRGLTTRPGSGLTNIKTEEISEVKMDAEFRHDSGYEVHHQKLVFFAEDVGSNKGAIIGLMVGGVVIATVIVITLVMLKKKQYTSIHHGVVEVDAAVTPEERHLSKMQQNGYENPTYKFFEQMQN

`O=C(O)c1ccc2cccc(O)c2n1`: in data set [1], the IC50 (in general, the midpoint of a concentration-inhibition curve) came to 10 µM.

With `Oc1ccc(/C=C/c2ccc(O)c3ncccc23)cc1`, the LD50 (in general, the dose expected to kill half of the subjects tested) at 336 h in data set [2] was greater than 2000 mg/kg. The molecule further gave an IC50 in data set [3] of 8.5 µM. Consider `COc1ccc(OC)c(/C=C/NC(=O)c2cc(O)c3cccc(OC)c3n2)c1`, for which the “Ratio CC50/IC50” value in data set [4] is recorded as 25.27. 3.75 µM corresponded to half-maximal inhibition with Leishmania donovani (IC50). For the molecule `CCCCCCCCCCCCCCCCOP(=O)([O-])OCC[N+](C)(C)C` [MILTEFOSINE], the “Ratio CC50/IC50” value in data set [4] worked out at 4.1. This molecule displayed an IC50 in the data set with Leishmania donovani of 12.4 µM.
